In patent publication US12544348B2, “Methods for treating APOE4/4-associated disorders” (The Regents of the University of California, priority 2018, dated 2026):

How the values were obtained:
[1] = system: apoE4-KI mice; assay: Morris water maze (MWM) spatial learning and memory, aged apoE4-KI mice; format: in vivo
From the text: (§1) Mice. All protocols and procedures followed the guidelines of the Laboratory Animal Resource Center at the University of California, San Francisco (UCSF). All mice were housed under identical conditions from birth through death (12-hour light/dark cycle, housed 5/cage, PicoLab Rodent Diet 20). All mouse lines were maintained on a C57Bl/6J background. ApoE3-KI and apoE4-KI homozygous mouse lines (Taconic)^30,31 were born and aged under normal conditions at the Gladstone Institutes/UCSF animal facility. Female apoE-KI mice were used because of their susceptibility to AD-related neuronal and behavioral deficits. The ages of the mice are indicated in the behavioral testing section of the online methods. Bumetanide treatment. Bumetanide was prepared at 220 μM in 2% DMSO in 0.9% sterile saline, adjusted to pH 8.5 with NaOH for solubility, and given by i.p. injection daily starting 6 weeks before and continuing throughout behavioral assessment. Body weight was measured weekly during bumetanide treatment; injection volume was calculated to achieve a dose of 0.02 (low) or 0.2 (high) mg bumetanide/kg body mass (e.g., 50-ul daily injection for a 20-g mouse). Control mice were injected with a matched volume of 2% DMSO in 0.9% sterile saline, pH 8.5. […] Behavioral testing. Mice were singly housed before testing. Each mouse was assigned a random number, so researchers were blinded to genotype and treatment information. At about 14 months of age, apoE3-KI and apoE4-KI mice were randomly assigned to treatment groups: apoE3-KI vehicle (n=10, age 14.01±0.44 months), apoE3-KI low bumetanide (n=11, age 14.30±0.33 months), apoE3-KI high bumetanide (n=10, age 13.74±0.22 months), apoE4-KI vehicle (n=10, age 14.10±0.35), apoE4-KI low bumetanide (n=10, age 14.70±0.27 months), apoE4-KI high bumetanide (n=9, age 13.77±0.28 months). Treatment was administered daily by i.p. injection beginning 6 weeks before and continuing throughout the 14 days of testing in the Morris water maze (MWM); injections were given at the end of the light cycle and after the day's test. The MWM pool (diameter, 122 cm) contained opaque water (22-23° C.) with a platform 10 cm in diameter. The platform was submerged 1.5 cm during hidden platform sessions^20-23,32 and marked with black-and-white-striped mast (15 cm high) during cued training sessions. Mice were trained to locate the hidden platform (hidden days 1-5) and the cued platform (visible days 1-3) in two daily sessions (3.5 h apart), each consisting of two 60-s trials (hidden and cued training) with a 15-min intertrial interval. Distal visual cues on the walls of the behavioral testing room remained constant throughout the test. Visible trials took place after training and memory probes and were 60 seconds long with a cued visible platform. The platform location remained constant in the hidden platform sessions but was changed for each cued (visible) platform session. Entry points were changed semirandomly between trials. At 24, 72, and 120 hours after the last hidden platform training, a 60-s probe trial (platform removed) was done. The entry point for the probe trial was in the southwest quadrant, and the target quadrant was the northeast quadrant. Performance was monitored with an Etho Vision video-tracking system (Noldus Information Technology). For the probe trials, the following analyses were performed (1) the percent time spent in the target quadrant versus average time spent in the three other quadrants, (2) the number of crossings over the position of the target platform versus the average number of crossings over the equivalent positions in the three other quadrants and (3) the distance to platform over the first 10 seconds. Statistical analyses. Behavior metrics are expressed as mean±SEM. All values for n are the numbers of mice or biological replicates. The distribution of data was assessed with the Shapiro-Wilk normality test; most of the data were normally distributed. […]

[2] = system: apoE3-KI mice; assay: Morris water maze (MWM) spatial learning and memory, aged apoE3-KI mice; format: in vivo; conditions: for short-term memory, 24-hour probe trial: vs vehicle-treated apoE3-KI
From the text: as §1

[3] = 16-month-old apoE4-KI mice, high dose 0.2 mg/kg daily i.p. 8 weeks
[4] = apoE4-KI mice, high dose 0.2 mg/kg daily i.p. 8 weeks
[5] = apoE3-KI mice, high dose 0.2 mg/kg daily i.p. 8 weeks
[6] = apoE3-KI mice, low dose 0.02 mg/kg daily i.p. 8 weeks

CCCCNc1cc(C(=O)O)cc(S(N)(=O)=O)c1Oc1ccccc1 [bumetanide, 3-(butylamino)-4-phenoxy-5-sulfamoylbenzoic acid]
long-term memory, 120-hour probe trial (time in target quadrant) [1, 3]: significant preference for the target quadrant | short-term memory, 24-hour probe trial (percent time in target quadrant) [1, 3]: rescued the short-term memory deficit | short-term memory, 24-hour probe trial (percent time in target quadrant) ([1]; 16-month-old apoE4-KI mice, low dose 0.02 mg/kg daily i.p. 8 weeks): rescued the short-term memory deficit | learning curve (escape latency) in hidden platform trials ([1]; apoE4-KI mice, 0.02 or 0.2 mg/kg daily i.p. 8 weeks, vs vehicle, learning days 1-5): did not differ | platform crossings in target quadrant versus other quadrants, 24-hour probe trial [1, 4]: significantly more platform crossings in the target quadrant | platform crossings in target quadrant versus other quadrants, 120-hour probe trial [1, 4]: significantly more platform crossings in the target quadrant | short-term memory accuracy (platform crossings), 24-hour probe trial ([1]; apoE4-KI mice, low dose 0.02 mg/kg daily i.p. 8 weeks): trend toward significant improvement | long-term memory, 120-hour probe trial (summary paragraph, dose not stated) ([2]; aged apoE3-KI mice, dose not stated, vehicle-treated apoE3-KI mice did not): remembered the hidden platform location | learning curve (escape latency) in hidden platform trials ([2]; apoE3-KI mice, 0.02 or 0.2 mg/kg daily i.p. 8 weeks, vs vehicle, learning days 1-5): did not differ | long-term memory, 120-hour probe trial [2, 5]: forgot the hidden platform location | platform crossings in target quadrant versus other quadrants, 24-hour probe trial [2, 5]: not apoE3-KI mice | platform crossings in target quadrant versus other quadrants, 120-hour probe trial [2, 5]: not apoE3-KI mice | short-term memory, 24-hour probe trial [2, 5]: impaired short-term memory | long-term memory, 120-hour probe trial [2, 6]: forgot the hidden platform location | short-term memory, 24-hour probe trial [2, 6]: performed equally well
